Laboratory results published in patent US8455688B2, “HDAC inhibitors” (Lixte Biotechnology, Inc., priority 2007, dated 2013).
Converted amounts (≈) assume the structure as drawn. Like-named read-outs stand apart in the source and are kept apart here.

How the values were obtained:
[1] = tested on: T. rubrum; test: Broth dilution antifungal susceptibility testing, T. rubrum; format: cell-based, Trichophyton rubrum; settings: Trichophyton rubrum, 80% inhibition, read-out: minimum inhibitory concentration (MIC)
Method: (§1) A total of 23 isolates were tested to include 3 Candida albicans, 3 Candida glabrata, 3 Cryptococcus neoformans, 3 Aspergillus fumigatus, 3 Rhizopus oryzae, 3, Fusarium solani, 3 Pseudallescheria boydii, and 2 […]. All isolates were clinical isolates submitted to the Fungus Testing Laboratory for evaluation. Antifungal susceptibility testing was accomplished according to the methods outlined in the National Committee for Clinical Laboratory Standards, M-27A2, Reference Method for Broth Dilution Antifungal Susceptibility Testing of Yeasts; Approved Standard, and M38-A “Reference Method for Broth Dilution Antifungal Susceptibility Testing of Conidium-Forming Filamentous Fungi; Approved Standard”. This includes testing in RPMI-1640 with glutamine and without bicarbonate, an inoculum size of 0.5-2.5×10^3 for yeasts or […] for moulds, and incubation at 35° C. for 24 and 48 hours. […] Drug concentrations were 0.125-64 μg/ml. A 10 mg portion of each powder was weighed out and added to 1 ml of 100% DMSO for compound 205. The resulting concentration of […] was diluted to a working concentration of 6400 μg/ml for compound 205 in 100% DMSO. All subsequent dilutions were also made using the respective diluents. Final testing concentrations ranged from 0.125-64 μg/ml. The NCCLS recommended medium RPMI-1640 (Hardy Diagnostics, Santa Monica, Calif.) was utilized as the test medium. All isolates in this study were clinical isolates received in the Fungus Testing Laboratory for standard antifungal susceptibility testing and/or identification. Isolates, which were not sent for identification, were confirmed to assure testing integrity. A total of 23 were tested to include 3 Candida albicans, 3 Candida glabrata, 3 Cryptococcus neoformans, 3 Aspergillus fumigatus, 3 Rhizopus oryzae, 3, Fusarium solani, 3 Pseudallescheria boydii, and 2 […]. Minimum inhibitory concentrations (MIC) were determined at the first 24-hour interval where growth could be determined in the drug-free control tube.

[2] = tested on: A. fumigatus; test: Broth dilution antifungal susceptibility testing, A. fumigatus; format: cell-based, Aspergillus fumigatus; settings: Aspergillus fumigatus, 80% inhibition, read-out: minimum inhibitory concentration (MIC)
Method: as §1

[3] = tested on: S. apiospermum; test: Broth dilution antifungal susceptibility testing, S. apiospermum; format: cell-based, Pseudallescheria boydii; settings: Scedosporium apiospermum, 80% inhibition, read-out: minimum inhibitory concentration (MIC)
Method: as §1

[4] = tested on: C. glabrata; test: Broth dilution antifungal susceptibility testing, C. glabrata; format: cell-based, Candida glabrata; settings: Nakaseomyces glabratus, 50% reduction in turbidity, read-out: minimum inhibitory concentration (MIC)
Method: as §1

[5] = tested on: C. neoformans; test: Broth dilution antifungal susceptibility testing, C. neoformans; format: cell-based; settings: Cryptococcus neoformans, 50% reduction in turbidity, read-out: minimum inhibitory concentration (MIC)
Method: as §1

[6] = tested on: C. albicans; test: Broth dilution antifungal susceptibility testing, C. albicans; format: cell-based, Candida albicans; settings: Candida albicans, 50% reduction in turbidity, read-out: minimum inhibitory concentration (MIC)
Method: as §1

[7] = tested on: R. arrhizus; test: Broth dilution antifungal susceptibility testing, R. arrhizus; format: cell-based, Rhizopus oryzae; settings: Rhizopus arrhizus, 80% inhibition, read-out: minimum inhibitory concentration (MIC)
Method: as §1

[8] = tested on: F. solani; test: Broth dilution antifungal susceptibility testing, F. solani; format: cell-based; settings: Fusarium solani, 80% inhibition, read-out: minimum inhibitory concentration (MIC)
Method: as §1

MIC ([1]; 24 h, isolate 07-1743, 24 hours): 8 µg/mL (≈ 22.4 µM) | MIC ([1]; 24 h, isolate 07-2055, 24 hours): 8 µg/mL (≈ 22.4 µM) | MIC ([1]; 48 h, isolate 07-1743, 48 hours): 8 µg/mL (≈ 22.4 µM) | MIC ([1]; 48 h, isolate 07-2055, 48 hours): 8 µg/mL (≈ 22.4 µM) | MIC ([2]; 24 h, isolate 05-388, 24 hours): 16 µg/mL (≈ 44.8 µM) | MIC ([2]; 24 h, isolate 06-4126, 24 hours): 16 µg/mL (≈ 44.8 µM) | MIC ([2]; 24 h, isolate 07-2039, 24 hours): 32 µg/mL (≈ 89.5 µM) | MIC ([2]; 48 h, isolate 05-388, 48 hours): > 64 µg/mL | MIC ([2]; 48 h, isolate 06-4126, 48 hours): > 64 µg/mL | MIC ([2]; 48 h, isolate 07-2039, 48 hours): > 64 µg/mL | MIC ([3]; 24 h, isolate 07-1333, 24 hours): 64 µg/mL (≈ 179 µM) | MIC ([3]; 24 h, isolate 07-1502, 24 hours): 32 µg/mL (≈ 89.5 µM) | MIC ([3]; 24 h, isolate 07-1601, 24 hours): 8 µg/mL (≈ 22.4 µM) | MIC ([3]; 48 h, isolate 07-1333, 48 hours): > 64 µg/mL | MIC ([3]; 48 h, isolate 07-1502, 48 hours): > 64 µg/mL | MIC ([3]; 48 h, isolate 07-1601, 48 hours): > 64 µg/mL | MIC ([4]; 24 h, isolate 07-2964, 24 hours): 2 µg/mL (≈ 5.59 µM) | MIC ([4]; 24 h, isolate 07-2965, 24 hours): 2 µg/mL (≈ 5.59 µM) | MIC ([4]; 24 h, isolate 07-3013, 24 hours): 2 µg/mL (≈ 5.59 µM) | MIC ([4]; 48 h, isolate 07-2964, 48 hours): 32 µg/mL (≈ 89.5 µM) | MIC ([4]; 48 h, isolate 07-2965, 48 hours): 32 µg/mL (≈ 89.5 µM) | MIC ([4]; 48 h, isolate 07-3013, 48 hours): 32 µg/mL (≈ 89.5 µM) | MIC ([5]; 24 h, isolate 07-2665, 24 hours): 32 µg/mL (≈ 89.5 µM) | MIC ([5]; 24 h, isolate 07-2737, 24 hours): 8 µg/mL (≈ 22.4 µM) | MIC ([5]; 24 h, isolate 07-2829, 24 hours): 16 µg/mL (≈ 44.8 µM) | MIC ([5]; 48 h, isolate 07-2665, 48 hours): 32 µg/mL (≈ 89.5 µM) | MIC ([5]; 48 h, isolate 07-2737, 48 hours): 16 µg/mL (≈ 44.8 µM) | MIC ([5]; 48 h, isolate 07-2829, 48 hours): 16 µg/mL (≈ 44.8 µM) | MIC ([6]; 24 h, isolate 07-3006, 24 hours): 2 µg/mL (≈ 5.59 µM) | MIC ([6]; 24 h, isolate 07-3011, 24 hours): 2 µg/mL (≈ 5.59 µM) | MIC ([6]; 24 h, isolate 07-3012, 24 hours): 2 µg/mL (≈ 5.59 µM) | MIC ([6]; 48 h, isolate 07-3006, 48 hours): 32 µg/mL (≈ 89.5 µM) | MIC ([6]; 48 h, isolate 07-3011, 48 hours): 32 µg/mL (≈ 89.5 µM) | MIC ([6]; 48 h, isolate 07-3012, 48 hours): 32 µg/mL (≈ 89.5 µM) | MIC ([7]; 24 h, isolate 07-1870, 24 hours): 2 µg/mL (≈ 5.59 µM) | MIC ([7]; 24 h, isolate 07-2044, 24 hours): 2 µg/mL (≈ 5.59 µM) | MIC ([7]; 24 h, isolate 07-2078, 24 hours): > 64 µg/mL | MIC ([7]; 48 h, isolate 07-1870, 48 hours): > 64 µg/mL | MIC ([7]; 48 h, isolate 07-2044, 48 hours): > 64 µg/mL | MIC ([7]; 48 h, isolate 07-2078, 48 hours): > 64 µg/mL | MIC ([8]; 24 h, isolate 07-1399, 24 hours): > 64 µg/mL | MIC ([8]; 24 h, isolate 07-1755, 24 hours): > 64 µg/mL | MIC ([8]; 24 h, isolate 07-1867, 24 hours): > 64 µg/mL | MIC ([8]; 48 h, isolate 07-1399, 48 hours): > 64 µg/mL | MIC ([8]; 48 h, isolate 07-1755, 48 hours): > 64 µg/mL | MIC ([8]; 48 h, isolate 07-1867, 48 hours): > 64 µg/mL
Structure (SMILES): Nc1ccc(NC(=O)CCCCCNC(=O)c2ccccc2S)cc1 [Compound 209, 2-Mercapto-N-[5-(4-Aminophenylcarbamoyl)-pentyl]benzamide]
